Laboratory results reported in PubChem BioAssay (NCI).
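Compound exposure: 48 hours, 5 concentrations, 96-well plates. GI50 = concentration required for 50% inhibition of growth. At the TGI there is no net growth.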

Tests used:
Assay in all cases: NCI-60 cell line screen, 48 h
NCI/ADR-RES ovarian = system: NCI/ADR-RES ovarian
DU-145 prostate = system: DU-145 prostate
SF-539 CNS = system: SF-539 CNS
MDA-MB-231 breast = system: MDA-MB-231 breast
SK-MEL-28 melanoma = system: SK-MEL-28 melanoma
TK-10 renal = system: TK-10 renal
HCT-15 colon = system: HCT-15 colon
NCI-H23 lung = system: NCI-H23 lung
OVCAR-4 ovarian = system: OVCAR-4 ovarian
MDA-MB-435 = system: MDA-MB-435
ACHN renal = system: ACHN renal
SK-MEL-5 melanoma = system: SK-MEL-5 melanoma
UACC-62 melanoma = system: UACC-62 melanoma
BT-549 breast = system: BT-549 breast
OVCAR-5 ovarian = system: OVCAR-5 ovarian
COLO 205 colon = system: COLO 205 colon
A498 renal = system: A498 renal
SNB-75 CNS = system: SNB-75 CNS
SK-OV-3 ovarian = system: SK-OV-3 ovarian
HT29 colon = system: HT29 colon
NCI-H226 lung = system: NCI-H226 lung
HOP-62 NSCLC = system: HOP-62 NSCLC
SW-620 colon = system: SW-620 colon
HCC-2998 colon = system: HCC-2998 colon
CAKI-1 renal = system: CAKI-1 renal
NCI-H460 lung = system: NCI-H460 lung
MALME-3M melanoma = system: MALME-3M melanoma
A549 NSCLC = system: A549 NSCLC
HS 578T breast = system: HS 578T breast
U251 CNS = system: U251 CNS
EKVX NSCLC = system: EKVX NSCLC
SF-268 CNS = system: SF-268 CNS
T-47D breast = system: T-47D breast
OVCAR-3 ovarian = system: OVCAR-3 ovarian
IGROV1 ovarian = system: IGROV1 ovarian
MOLT-4 leukemia = system: MOLT-4 leukemia
OVCAR-8 ovarian = system: OVCAR-8 ovarian
M14 melanoma = system: M14 melanoma
HCT-116 colon = system: HCT-116 colon
SK-MEL-2 melanoma = system: SK-MEL-2 melanoma
SNB-19 CNS = system: SNB-19 CNS
NCI-H522 lung = system: NCI-H522 lung
SF-295 CNS = system: SF-295 CNS
K-562 leukemia = system: K-562 leukemia
786-0 renal = system: 786-0 renal
LOX IMVI melanoma = system: LOX IMVI melanoma
MCF7 breast = system: MCF7 breast
PC-3 prostate = system: PC-3 prostate
UO-31 renal = system: UO-31 renal
SN12C renal = system: SN12C renal
UACC-257 melanoma = system: UACC-257 melanoma
KM12 colon = system: KM12 colon

CCc1cn2c(/C=N/N=C(N)N)c(-c3cc(C)c(Cl)cc3Cl)nc2s1
TGI (NCI/ADR-RES ovarian): 24.8 µM
TGI (DU-145 prostate): 3000 nM
TGI (SF-539 CNS): 3.11 µM
TGI (MDA-MB-231 breast): 2120 nM
TGI (SK-MEL-28 melanoma): 2820 nM
TGI (TK-10 renal): 3.46 µM
TGI (HCT-15 colon): 2970 nM
TGI (NCI-H23 lung): 3.16 µM
TGI (OVCAR-4 ovarian): 2780 nM
TGI (MDA-MB-435): 2760 nM
TGI (ACHN renal): 3.04 µM
TGI (SK-MEL-5 melanoma): 2990 nM
TGI (UACC-62 melanoma): 2720 nM
TGI (BT-549 breast): 3.2 µM
TGI (OVCAR-5 ovarian): 2960 nM
TGI (COLO 205 colon): 3.61 µM
TGI (A498 renal): 3.75 µM
TGI (SNB-75 CNS): 2880 nM
TGI (SK-OV-3 ovarian): 3.56 µM
TGI (HT29 colon): 2450 nM

CNC(=O)[C@H](Cc1c[nH]c2ccccc12)NC(=O)[C@@H](CC(=O)NO)CC(C)C
GI50 (NCI-H226 lung): > 25 µM
TGI (NCI-H226 lung): > 25 µM
GI50 (NCI/ADR-RES ovarian): > 25 µM
TGI (NCI/ADR-RES ovarian): > 25 µM
GI50 (DU-145 prostate): > 25 µM
TGI (DU-145 prostate): > 25000 nM
GI50 (HOP-62 NSCLC): > 25 µM
TGI (HOP-62 NSCLC): > 25 µM
GI50 (SF-539 CNS): > 25 µM
TGI (SF-539 CNS): > 25 µM
GI50 (MDA-MB-231 breast): > 25 µM
TGI (MDA-MB-231 breast): > 25000 nM
GI50 (SW-620 colon): > 25 µM
TGI (SW-620 colon): > 25 µM
GI50 (HCC-2998 colon): > 25 µM
TGI (HCC-2998 colon): > 25 µM
GI50 (SK-MEL-28 melanoma): > 25 µM
TGI (SK-MEL-28 melanoma): > 25000 nM
GI50 (TK-10 renal): > 25 µM
TGI (TK-10 renal): > 25 µM
GI50 (CAKI-1 renal): > 25 µM
TGI (CAKI-1 renal): > 25 µM
GI50 (HCT-15 colon): > 25 µM
TGI (HCT-15 colon): > 25000 nM
GI50 (NCI-H23 lung): > 25 µM
TGI (NCI-H23 lung): > 25 µM
GI50 (NCI-H460 lung): > 25 µM
TGI (NCI-H460 lung): > 25 µM
GI50 (MALME-3M melanoma): > 25 µM
TGI (MALME-3M melanoma): > 25 µM
GI50 (OVCAR-4 ovarian): > 25 µM
TGI (OVCAR-4 ovarian): > 25000 nM
GI50 (A549 NSCLC): > 25 µM
TGI (A549 NSCLC): > 25 µM
GI50 (HS 578T breast): > 25 µM
TGI (HS 578T breast): > 25 µM
GI50 (U251 CNS): > 25 µM
TGI (U251 CNS): > 25 µM
GI50 (EKVX NSCLC): > 25 µM
TGI (EKVX NSCLC): > 25 µM
GI50 (MDA-MB-435): > 25 µM
TGI (MDA-MB-435): > 25000 nM
GI50 (SF-268 CNS): > 25 µM
TGI (SF-268 CNS): > 25 µM
GI50 (T-47D breast): > 25 µM
TGI (T-47D breast): > 25 µM
GI50 (OVCAR-3 ovarian): > 25 µM
TGI (OVCAR-3 ovarian): > 25 µM
GI50 (IGROV1 ovarian): > 25 µM
TGI (IGROV1 ovarian): > 25 µM
GI50 (MOLT-4 leukemia): > 25 µM
TGI (MOLT-4 leukemia): > 25 µM
GI50 (OVCAR-8 ovarian): > 25 µM
TGI (OVCAR-8 ovarian): > 25 µM
GI50 (ACHN renal): > 25 µM
TGI (ACHN renal): > 25 µM
GI50 (M14 melanoma): > 25 µM
TGI (M14 melanoma): > 25 µM
GI50 (HCT-116 colon): > 25 µM
TGI (HCT-116 colon): > 25 µM
GI50 (SK-MEL-2 melanoma): > 25 µM
TGI (SK-MEL-2 melanoma): > 25 µM
GI50 (SNB-19 CNS): > 25 µM
TGI (SNB-19 CNS): > 25 µM
GI50 (SK-MEL-5 melanoma): > 25 µM
TGI (SK-MEL-5 melanoma): > 25000 nM
GI50 (NCI-H522 lung): > 25 µM
TGI (NCI-H522 lung): > 25 µM
GI50 (UACC-62 melanoma): > 25 µM
TGI (UACC-62 melanoma): > 25000 nM
GI50 (SF-295 CNS): > 25 µM
TGI (SF-295 CNS): > 25 µM
GI50 (BT-549 breast): > 25 µM
TGI (BT-549 breast): > 25 µM
GI50 (OVCAR-5 ovarian): > 25 µM
TGI (OVCAR-5 ovarian): > 25000 nM
GI50 (COLO 205 colon): > 25 µM
TGI (COLO 205 colon): > 25 µM
GI50 (A498 renal): > 25 µM
TGI (A498 renal): > 25 µM
GI50 (SNB-75 CNS): > 25 µM
TGI (SNB-75 CNS): > 25000 nM
GI50 (K-562 leukemia): 21.6 µM
TGI (K-562 leukemia): > 25 µM
GI50 (786-0 renal): > 25 µM
TGI (786-0 renal): > 25 µM
GI50 (LOX IMVI melanoma): > 25 µM
TGI (LOX IMVI melanoma): > 25 µM
GI50 (SK-OV-3 ovarian): > 25 µM
TGI (SK-OV-3 ovarian): > 25 µM
GI50 (MCF7 breast): > 25 µM
TGI (MCF7 breast): > 25 µM
GI50 (PC-3 prostate): > 25 µM
TGI (PC-3 prostate): > 25 µM
GI50 (UO-31 renal): > 25 µM
TGI (UO-31 renal): > 25 µM
GI50 (SN12C renal): > 25 µM
TGI (SN12C renal): > 25 µM
GI50 (HT29 colon): > 25 µM
TGI (HT29 colon): > 25000 nM
GI50 (UACC-257 melanoma): > 25 µM
TGI (UACC-257 melanoma): > 25 µM
GI50 (KM12 colon): > 25 µM
TGI (KM12 colon): > 25 µM
